Patent US12024543B2, “Micropeptides and use of same for modulating gene expression” (UNIVERSITE PAUL SABATIER TOULOUSE III, priority 2013, dated 2024)

What was measured:
[1] = test system: AtmiR319a; assay: Expression of AtmiPEP319a2 (AtmiORF319a) in tobacco expressing AtmiR319a; assay type: in vivo, Nicotiana benthamiana; settings: overexpression of AtmiORF319a
Method: At present, AtmiPEP165a and AtmiPEP319a2, identified in Arabidopsis thaliana, have already been characterized.
(§1) The total RNA was extracted from roots of M. truncatula or from tobacco leaves using the extraction kit RNeasy Plant Mini Kit (Qiagen). The reverse transcription was performed using the reverse transcriptase SuperScript II (Invitrogen) starting from 500 ng of total RNA. Three repetitions (n=3) were carried out, each with two technical repetitions. Each experiment was repeated from two to three times. The amplifications by qPCR were carried out using a LightCycler 480 System thermocycler (Roche Diagnostics) by the method described in Lauressergues et al. (Plant J., 72(3): 512-22, 2012).
For the miPEPs 165a and 319a, the corresponding miORFs were cloned into pBIN19 by the method described in Combier et al. (Genes & Dev, 22: 1549-1559, 2008).
(§2) The composite plants having roots transformed with Agrobacterium rhizogenes were obtained by the method described in Boisson-Dernier et al. (Mol Plant-Microbe Interact, 18: 1269-1276, 2005). The transformed roots were verified and selected by observations of DsRED with a binocular fluorescence magnifier. The control roots correspond to roots transformed with A. rhizogenes not containing the pPEX-DsRED vector. Transformation of the tobacco leaves was carried out by the method described in Combier et al. (Genes & Dev, 22: 1549-1559, 2008).

[2] = test system: pre-MtmiR169, pre-MtmiR169a, pre-MtmiR171a, pre-MtmiR171h, pre-MtmiR393a, pre-MtmiR393b, pre-MtmiR396a, pre-MtmiR396b; assay: Specificity of miPEP171b1: expression of different microRNA precursors of M. truncatula; assay type: in vivo, Medicago truncatula; settings: overexpression of MtmiPEP171b1 or treatment with MtmiPEP171b1 (0.1 μM), ratio to control roots
Method: The expression of different microRNA precursors of Medicago truncatula (MtmiR171b SEQ ID NO: 319, MtmiR169 SEQ ID NO: 367, MtmiR169a SEQ ID NO: 368, MtmiR171a SEQ ID NO: 369, MtmiR171h SEQ ID NO: 370, MtmiR393a SEQ ID NO: 371, MtmiR393b SEQ ID NO: 372, MtmiR396a SEQ ID NO: 373 and MtmiR396b SEQ ID NO: 374) was determined and compared between control plants and plants in which MtmiORF171b encoding MtmiPEP171b1 was overexpressed (FIG. 5A), or between control plants and plants grown on culture medium containing MtmiPEP171b1 (FIG. 5B).
as §1

[3] = test system: Medicago truncatula; assay: Number of lateral roots in M. truncatula; assay type: in vivo; settings: vs control plant
Method: The surface of seeds of M. truncatula was sterilized and they were left to germinate on agar plates for 5 days at 4° C. in the dark. […] The lateral roots were counted every day. […] The mean values of the relative expression of the genes or of the production of lateral roots were analysed using the Student test or the Kruskal-Wallis test. The error bars represent the SEM (Standard Error of the Mean). The asterisks indicate a significant difference (p<0.05).

[4] = test system: MtmiR171b; assay: Regulation of MtmiR171b by MtmiPEP171b1 in transformed tobacco leaves; assay type: in vivo, Nicotiana benthamiana; settings: for relative expression of pre-MtmiR171b (expression of MtmiR171b): co-expression of MtmiPEP171b1 (MtmiORF171b ATG vs ATT), FIG. 7
Method: In order to determine whether the mechanism of regulation of the microRNAs is conserved in other plant species, the regulation of MtmiR171b by MtmiPEP171b1 was tested in a different cellular model. For this, MtmiR171b and MtmiPEP171b1 were introduced into tobacco leaves.
The accumulation of MtmiR171b was measured in tobacco leaves transformed in order to express MtmiR171b of Medicago truncatula starting from wild-type pri-miRNA capable of producing MtmiPEP171b1, or starting from a mutated version of pri-miRNA incapable of producing MtmiPEP171b1 (in which the start codon ATG of MtmiORF171b has been replaced with ATT) (FIG. 6 and FIG. 20).
The accumulation of pre-MtmiR171b was measured in tobacco leaves transformed in order to express MtmiR171b of Medicago truncatula alone (control), or additionally expressing the wild-type MtmiORF171b of Medicago truncatula (35SmiPEP171b1 ATG), or a mutated version of MtmiORF171b in which the start codon ATG has been replaced with ATT (35SmiPEP171b1 ATT) (FIG. 7 and FIG. 21).
The leaves were watered by spraying with the peptides using peptide solutions at different concentrations (0.01, 0.1, 1 μM), firstly 12h before sampling and then a second time 30 min before sampling.
as §1
(§3) The DNA fragments of interest were amplified with Pfu polymerase (Promega). The DNA fragments were cloned using the XhoI and NotI enzymes into a pPEX-DsRED plasmid for an overexpression under the control of the constitutive strong promoter 35S, and using the KpnI-NcoI enzymes into a pPEX GUS plasmid for the reporter genes, by the method described in Combier et al. (Genes & Dev, 22: 1549-1559, 2008).
as §2

[5] = test system: MtmiR171b; assay: Watering of M. truncatula plants with synthetic MtmiPEP171b1, relative expression by qRT-PCR; assay type: in vivo, Medicago truncatula; settings: watering once daily for 5 days with MtmiPEP171b1 at 0.01, 0.1 or 1 μM
Method: The surface of seeds of M. truncatula was sterilized and they were left to germinate on agar plates for 5 days at 4° C. in the dark. The young shoots were then grown on 12-cm square plates filled with Fahraeus medium without nitrogen and containing 7.5 μM phosphate (Lauressergues et al., Plant J., 72(3): 512-22, 2012). The lateral roots were counted every day. In pots, the plants were watered every other day with modified Long Ashton medium with low phosphorus content (Balzergue et al., Journal of Experimental Botany, (62)1049-1060, 2011).
The peptides were synthesized by Eurogentec or Smartox-Biotech. MtmiPEP171b1 was resuspended in a solution of 40% water/50% acetonitrile/10% acetic acid (v/v/v), and the other peptides were resuspended in water.
The RNA was extracted using the reagent Tri-Reagent (MRC) according to the manufacturer's instructions, except for precipitation of the RNA, which was carried out with 3 volumes of ethanol. The reverse transcription of the RNA was carried out using the specific stem-loop primer RTprimer171b in combination with hexamers for performing the reverse transcription of RNA of high molecular weight.
In brief, 1 μg of RNA was added to the stem-loop primer MIR171b (0.2 μM), the hexamer (500 ng), the buffer RT (1×), the enzyme SuperScript Reverse transcriptase (SSIII) (one unit), the dNTPs (0.2 mM each), DTT (0.8 mM) in a final reaction mixture of 25 μl. In order to carry out the reverse transcription, a reaction of pulsed reverse transcription was performed (40 repetitions of the following cycle: 16° C. for 2 minutes, 42° C. for one minute and 50° C. for one second, followed by a final inactivation of the reverse transcription at 85° C. for 5 minutes).
as §1
The mean values of the relative expression of the genes or of the production of lateral roots were analysed using the Student test or the Kruskal-Wallis test. The error bars represent the SEM (Standard Error of the Mean). The asterisks indicate a significant difference (p<0.05).

[6] = test system: MtmiR171b; assay: Overexpression of MtmiPEP171b1 (MtmiORF171b) in M. truncatula roots, relative expression by qRT-PCR; assay type: in vivo, Medicago truncatula; settings: vs control plant
Method: as §1, §3, §2

[7] = test system: Arabidopsis thaliana; assay: Growth of Arabidopsis thaliana plants watered with synthetic miPEP; assay type: in vivo; settings: A. thaliana; watered with 0.1 μM synthetic peptide, 3 weeks of growth, vs water
Method: The photographs show two plants (top views and side views) after 3 weeks of growth: a control plant watered with water (A), and a plant watered with a composition of 0.1 μM of synthetic peptide corresponding to AtmiPEP164a (B).
The photographs show two plants (top views and side views) after 3 weeks of growth: a control plant watered with water (A), and a plant watered with a composition of 0.1 μM of synthetic peptide corresponding to AtmiPEP319a1 (B).

[8] = test system: AtmiR164a; assay: Northern blot of miR164a in A. thaliana roots treated with synthetic AtmiPEP164a; assay type: in vivo, Arabidopsis thaliana; settings: 0.1 μM synthetic miPEP164a in water vs water
Method: Northern blot analysis was carried out according to the protocol described in Lauressergues et al. Plant J, 72(3): 512-22, 2012.
The biological samples were homogenized in a buffer containing 0.1 M of NaCl, 2% of SDS, 50 mM of Tris-HCl (pH 9), 10 mM of EDTA (pH 8) and 20 mM of mercaptoethanol, and the RNA was extracted twice with a phenol/chloroform mixture and was precipitated with ethanol.
The RNA was loaded on PAGE 15% gel and transferred to a nylon membrane (HybondNX, Amersham). RNA was hybridized with a radioactive oligonucleotide probe labelled at its end, in order to detect the RNA U6 or for miR164a.
The hybridizations were carried out at 55° C. The hybridization signals were quantified using a phosphorimager (Fuji) and normalized with the signal of the specific probe of RNA U6.

[9] = test system: DmmiR8; assay: Transfected Drosophila melanogaster S2 cells, relative expression of Pre-miR8; assay type: cell-based
Method: S2 cells are cultured in a T75 flask in 12 mL of Schneider's medium (GIBCO), containing 1% of penicillin 100 U/mL and […] (Sigma) and 10% of decomplemented foetal calf serum (30 min at 56° C.). The transient transfections are carried out using the FuGENE® HD transfection kit (Roche), according to the recommendations. Conventionally, 1.5 million S2 cells, previously seeded in 6-well plates (3 ml of medium per well), are transfected with 250 ng of total plasmid DNA. The DNA is brought into contact with the Fugene (3 μl) in 100 μl of OPTIMEM (GIBCO). After 20 minutes, the transfection reagent formed is brought into contact with the cells in the culture medium. The RNA of the cells is extracted 66 h after transfection.

[10] = overexpression of MtmiPEP171b1 (MtmiORF171b)
[11] = tobacco expressing MtmiR171b, overexpression of MtmiPEP171b1 or 0.1 μM miPEP171b1, FIG. 9

MFQTLYLFIYIHTNILLLS (listed as Arabidopsis thaliana) [AtmiPEP319a2]
accumulation of AtmiR319a [1]: increase

MLLHRLSKFCKIERDIVYIS (listed as Medicago truncatula) [MtmiPEP171b1]
effect on the accumulation of the other miRNAs (precursors of MtmiR169, 169a, 171a, 171h, 393a, 393b, 396a, 396b) [2]: not on the other miRNAs | number of lateral roots [3, 10]: reduction | number of lateral roots ([3]; watering with MtmiPEP171b1 at 0.1 μM once daily for 5 days): reduction | relative expression of pre-MtmiR171b (expression of MtmiR171b) ([4]; tobacco expressing MtmiR171b): increases | accumulation of MtmiR171b ([4]; tobacco expressing MtmiR171b, MtmiPEP171b1 sprayed (0.1 μM) twice, 12 h and 30 min before sampling): increase | accumulation of MtmiR171b [4, 11]: increase | accumulation of pre-MtmiR171b [4, 11]: increase | expression of MtmiR171b (pre-MtmiR171b) with MtmiPEP171b1 with or without protein tags ([4]; tobacco leaves, tags His, HA or GFP): increases the expression of MtmiR171b, and this effect is independent of the presence of tags | relative expression of MtmiR171b ([4]; tobacco, vector expressing mtmiPEP171b vs empty vector, ATT mutant or degenerate ORF, FIG. 21): increases | accumulation of MtmiR171b in the absence of translation of MtmiPEP171b1 ([4]; tobacco, pri-MtmiR171b with ATG of miORF171b replaced with ATT (or miORF deleted) vs wild-type pri-MtmiR171b): marked decrease | accumulation of MtmiR171b ([5]; vs control plant): increase | expression of the HAM1 gene ([5]; vs control plant): decrease | expression of the HAM2 gene ([5]; vs control plant): decrease | accumulation of pre-MtmiR171b ([5]; vs control plants): increase | accumulation of MtmiR171b [6]: increase | expression of the HAM1 gene [6]: decrease | expression of the HAM2 gene [6]: decrease

MPSWHGMVLLPYVKHTHASTHTHTHNIYGCACELVFH (listed as Arabidopsis thaliana) [AtmiPEP164a1]
plant growth [7]: increases plant growth significantly | accumulation of miR164a (Northern blot) [8]: increase

B1: ATGCTTCTTCATAGGCTCTCCAAATTTTGCAAAATTGAAAGAGACATAGTATATATATCTTAG (nucleic acid, listed as Medicago truncatula)
DNA: ATGCTTCTTCATAGGCTCTCCAAATTTTGCAAAATTGAAAGAGACATAGTATATATATCTTAG
modifications: listed as DNA, chemistry not fully specified
number of lateral roots [3, 10]: reduction | relative expression of pre-MtmiR171b (expression of MtmiR171b) ([4]; tobacco expressing MtmiR171b): increase | accumulation of MtmiR171b [6]: increase | expression of the HAM1 gene [6]: reduction | expression of the HAM2 gene [6]: reduction

B2: MEPGFVFVLFPTHLSTQHTQREKSILVMGLNLQSAKQSDKQNSKERKKNTQINSQRIPYRQGGQCSKVLSP (peptide)
chain: MEPGFVFVLFPTHLSTQHTQREKSILVMGLNLQSAKQSDKQNSKERKKNTQINSQRIPYRQGGQCSKVLSP
modifications: Drosophila melanogaster
expression of DmmiR8 (relative expression of Pre-miR8) ([9]; D. melanogaster cells overexpressing DmmiPEP8 vs miPEP8 with mutated start codons): increases | expression of DmmiR8 (relative expression of Pre-miR8) ([9]; D. melanogaster cells overexpressing wild-type DmmiR8 vs DmmiR8 with mutated miPEP8 start codons): increases
